Assay results: patent US6737383B1, “Herbicidal oxadiazolidines” (priority 1999, dated 2004)

How the values were obtained:
[1] = test system: rape; experiment: Test B pre/postemergence rape; assay type: in vivo, Brassica napus
Summary of the method: (§1)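 Response is a visual 0-to-10 score relative to untreated plants, where 0 means no effect and 10 means complete control, taken twelve to sixteen days after application. Treatments went onto soil at planting and onto foliage of 1- to 4-leaf plants, using a surfactant-containing non-phytotoxic solvent.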

[2] = test system: crabgrass; experiment: Test B pre/postemergence crabgrass; assay type: in vivo, Digitaria sanguinalis
Summary of the method: as §1

[3] = test system: soybean; experiment: Test B pre/postemergence soybean; assay type: in vivo, Glycine max
Summary of the method: as §1

[4] = test system: pigweed; experiment: Test B pre/postemergence pigweed; assay type: in vivo, Amaranthus retroflexus
Summary of the method: as §1

[5] = test system: duck salad; experiment: Test B flood test duck salad; assay type: in vivo, Heteranthera limosa
Summary of the method: (§2)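 Each value is a visual injury score relative to controls, with 10 meaning complete control and 0 no effect. Evaluation took place twelve to sixteen days after the 2-leaf-stage plants were treated and kept in the greenhouse.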

[6] = test system: surinam grass; experiment: Test B pre/postemergence surinam grass; assay type: in vivo, Brachiaria decumbens
Summary of the method: as §1

[7] = test system: morningglory; experiment: Test B pre/postemergence morningglory; assay type: in vivo, Ipomoea hederacea
Summary of the method: as §1

[8] = test system: purple nutsedge; experiment: Test B pre/postemergence purple nutsedge; assay type: in vivo, Cyperus rotundus
Summary of the method: as §1

[9] = test system: cocklebur; experiment: Test B pre/postemergence cocklebur; assay type: in vivo, Xanthium strumarium
Summary of the method: as §1

[10] = test system: velvetleaf; experiment: Test B pre/postemergence velvetleaf; assay type: in vivo, Abutilon theophrasti
Summary of the method: as §1

[11] = test system: blackgrass; experiment: Test B pre/postemergence blackgrass; assay type: in vivo, Alopecurus myosuroides
Summary of the method: as §1

[12] = test system: rice; experiment: Test B flood test rice; assay type: in vivo, Oryza sativa; settings: for Rice plant response rating: Postemergence section (flood test species)
Summary of the method: as §2

[13] = test system: wild oat; experiment: Test B pre/postemergence wild oat; assay type: in vivo, Avena fatua
Summary of the method: as §1

[14] = test system: corn; experiment: Test B pre/postemergence corn; assay type: in vivo, Zea mays
Summary of the method: as §1

[15] = test system: sugar beet; experiment: Test B pre/postemergence sugar beet; assay type: in vivo, Beta vulgaris
Summary of the method: as §1

[16] = test system: giant foxtail; experiment: Test B pre/postemergence giant foxtail; assay type: in vivo, Setaria faberii
Summary of the method: as §1

[17] = Postemergence, Rate 250 g/ha, scale 0 to 10, 0 is no effect, 10 is complete control
[18] = Postemergence, Rate 500 g/ha, scale of 0 to 10 where 0 is no effect and 10 is complete control
[19] = Preemergence, Rate 62 g/ha, scale 0 to 10 (0 no effect, 10 complete control)
[20] = Preemergence, Rate 125 g/ha, scale of 0 to 10 where 0 is no effect and 10 is complete control
[21] = Preemergence, Rate 250 g/ha, scale 0 to 10, 0 is no effect, 10 is complete control
[22] = Preemergence, Rate 500 g/ha, scale 0 to 10, 0 is no effect, 10 is complete control
[23] = Rate 125 g/ha, Postemergence, scale 0 to 10, 0 is no effect, 10 is complete control
[24] = Rate 62 g/ha, Postemergence, scale of 0 to 10 where 0 is no effect and 10 is complete control
[25] = flood test species, listed under Postemergence, Rate 250 g/ha, scale 0 to 10, 0 is no effect, 10 is complete control
[26] = Preemergence, Rate 250 g/ha, scale of 0 to 10 where 0 is no effect and 10 is complete control

## CC(C)N(C(=O)n1oc(=O)n(CCl)c1=O)c1ccccc1 [Compound 423]
[1]; [17]
  Plant response rating, Rape: 0
[1]; [18]
  Rape plant response rating: 0
[1]; [19]
  Plant response rating, Rape: 0
[1]; [20]
  Plant response rating, Rape: 0
[1]; [21]
  Rape plant response rating: 0
[1]; [22]
  Rape plant response rating: 0
[1]; [23]
  Rape plant response rating: 0
[2]; [17]
  Plant response rating, Crabgrass: 0
[2]; [18]
  Crabgrass plant response rating: 1
[2]; [19]
  Plant response rating, Crabgrass: 0
[2]; [20]
  Plant response rating, Crabgrass: 0
[2]; [22]
  Crabgrass plant response rating: 2
[2]; [24]
  Crabgrass plant response rating: 0
[2]; [23]
  Crabgrass plant response rating: 0
[3]; [17]
  Plant response rating, Soybean: 2
[3]; [18]
  Soybean plant response rating: 2
[3]; [19]
  Plant response rating, Soybean: 0
[3]; [20]
  Plant response rating, Soybean: 0
[3]; [21]
  Soybean plant response rating: 0
[3]; [22]
  Soybean plant response rating: 0
[3]; [23]
  Soybean plant response rating: 2
[4]; [17]
  Plant response rating, Redroot pigweed: 0
[4]; [18]
  Redroot pigweed plant response rating: 0
[4]; [19]
  Plant response rating, Redroot pigweed: 0
[4]; [20]
  Plant response rating, Redroot pigweed: 0
[4]; [21]
  Redroot pigweed plant response rating: 0
[4]; [22]
  Redroot pigweed plant response rating: 0
[4]; [23]
  Redroot pigweed plant response rating: 0
[5]; Postemergence section (flood test species), Rate 500 g/ha, scale of 0 to 10 where 0 is no effect and 10 is complete control
  Ducksalad plant response rating: 0
[5]; Rate 62 g/ha, Postemergence (flood test species), scale of 0 to 10 where 0 is no effect and 10 is complete control
  Ducksalad plant response rating: 0
[5]; Rate 125 g/ha, Postemergence section (flood test species), scale 0 to 10, 0 is no effect, 10 is complete control
  Ducksalad plant response rating: 0
[5]; [25]
  Plant response rating, Ducksalad: 0
[6]; [17]
  Plant response rating, B. signalgrass: 0
[6]; [18]
  B. signalgrass plant response rating: 0
[6]; [19]
  Plant response rating, B. signalgrass: 0
[6]; [20]
  Plant response rating, B. signalgrass: 0
[6]; [26]
  B. signalgrass plant response rating: 0
[6]; Preemergence, Rate 500 g/ha, scale of 0 to 10 where 0 is no effect and 10 is complete control
  B. signalgrass plant response rating: 0
[6]; [24]
  B. signalgrass plant response rating: 0
[6]; [23]
  B. signalgrass plant response rating: 0
[7]; [18]
  Morningglory plant response rating: 8
[7]; [19]
  Plant response rating, Morningglory: 0
[7]; [20]
  Plant response rating, Morningglory: 0
[7]; [21]
  Morningglory plant response rating: 0
[7]; [22]
  Morningglory plant response rating: 0
[7]; [23]
  Morningglory plant response rating: 2
[8]; [17]
  Plant response rating, Nutsedge: 0
[8]; [18]
  Nutsedge plant response rating: 0
[8]; [19]
  Plant response rating, Nutsedge: 0
[8]; [20]
  Plant response rating, Nutsedge: 0
[8]; [21]
  Nutsedge plant response rating: 0
[8]; [22]
  Nutsedge plant response rating: 0
[8]; [23]
  Nutsedge plant response rating: 0
[9]; [17]
  Plant response rating, Cocklebur: 0
[9]; [18]
  Cocklebur plant response rating: 0
[9]; [19]
  Plant response rating, Cocklebur: 0
[9]; [20]
  Plant response rating, Cocklebur: 0
[9]; [21]
  Cocklebur plant response rating: 0
[9]; [22]
  Cocklebur plant response rating: 0
[9]; [24]
  Cocklebur plant response rating: 0
[9]; [23]
  Cocklebur plant response rating: 0
[10]; [17]
  Plant response rating, Velvetleaf: 0
[10]; [18]
  Velvetleaf plant response rating: 0
[10]; [19]
  Plant response rating, Velvetleaf: 0
[10]; [20]
  Plant response rating, Velvetleaf: 0
[10]; [21]
  Velvetleaf plant response rating: 0
[10]; [22]
  Velvetleaf plant response rating: 0
[10]; [23]
  Velvetleaf plant response rating: 0
[11]; [17]
  Plant response rating, Blackgrass: 0
[11]; [18]
  Blackgrass plant response rating: 2
[11]; [19]
  Plant response rating, Blackgrass: 0
[11]; [20]
  Plant response rating, Blackgrass: 0
[11]; [26]
  Blackgrass plant response rating: 0
[11]; [22]
  Blackgrass plant response rating: 0
[11]; [24]
  Blackgrass plant response rating: 0
[11]; [23]
  Blackgrass plant response rating: 0
[12]; Rate 500 g/ha, scale of 0 to 10 where 0 is no effect and 10 is complete control
  Rice plant response rating: 0
[12]; Rate 125 g/ha, scale 0 to 10, 0 is no effect, 10 is complete control
  Rice plant response rating: 0
[12]; [25]
  Plant response rating, Rice: 0
[13]; [18]
  Wild oats plant response rating: 0
[13]; [19]
  Plant response rating, Wild oats: 0
[13]; [20]
  Plant response rating, Wild oats: 0
[13]; [21]
  Wild oats plant response rating: 0
[13]; [22]
  Wild oats plant response rating: 0
[13]; [23]
  Wild oats plant response rating: 0
[14]; [17]
  Plant response rating, Corn: 0
[14]; [18]
  Corn plant response rating: 0
[14]; [19]
  Plant response rating, Corn: 0
[14]; [20]
  Plant response rating, Corn: 0
[14]; [21]
  Corn plant response rating: 0
[14]; [22]
  Corn plant response rating: 0
[14]; [24]
  Corn plant response rating: 0
[14]; [23]
  Corn plant response rating: 0
[15]; [17]
  Plant response rating, Sugarbeets: 0
[15]; [18]
  Sugarbeets plant response rating: 0
[15]; [19]
  Plant response rating, Sugarbeets: 0
[15]; [20]
  Plant response rating, Sugarbeets: 0
[15]; [21]
  Sugarbeets plant response rating: 0
[15]; [22]
  Sugarbeets plant response rating: 0
[15]; [23]
  Sugarbeets plant response rating: 0
[16]; [17]
  Plant response rating, Giant foxtail: 0
[16]; [18]
  Giant foxtail plant response rating: 2
[16]; [19]
  Plant response rating, Giant foxtail: 0
[16]; [20]
  Plant response rating, Giant foxtail: 0
[16]; [21]
  Giant foxtail plant response rating: 3
[16]; [22]
  Giant foxtail plant response rating: 4
[16]; [24]
  Giant foxtail plant response rating: 0
[16]; [23]
  Giant foxtail plant response rating: 0
